As a reminder, the MRT inf is the average time that molecules of a dose stay in the body. One may read the AUC(0-inf) as the area under the concentration-time curve extrapolated to infinity. For orientation: Cmax means the highest concentration seen after dosing.

The subject of one series is BMDM. The series is described as follows: Anti-inflammatory activity in mouse BMDM cells assessed as decrease in CXCL8 mRNA level at 1 to 5 uM pretreated for 1 hr followed by infection with Helicobacter pylori for 2 hrs by RT-qPCR analysis. Type of series: functional, cell-based. Particulars: dose 1-5 µM, time 3.0 hrs. On the technique in general: In qPCR the cycle at which signal appears reflects the starting amount.

For series [1], the target named is T1, Nucleotide-binding oligomerization domain-containing protein 1 (Mus musculus) (UniProt Q8BHB0).
T1 sequence (whole entry): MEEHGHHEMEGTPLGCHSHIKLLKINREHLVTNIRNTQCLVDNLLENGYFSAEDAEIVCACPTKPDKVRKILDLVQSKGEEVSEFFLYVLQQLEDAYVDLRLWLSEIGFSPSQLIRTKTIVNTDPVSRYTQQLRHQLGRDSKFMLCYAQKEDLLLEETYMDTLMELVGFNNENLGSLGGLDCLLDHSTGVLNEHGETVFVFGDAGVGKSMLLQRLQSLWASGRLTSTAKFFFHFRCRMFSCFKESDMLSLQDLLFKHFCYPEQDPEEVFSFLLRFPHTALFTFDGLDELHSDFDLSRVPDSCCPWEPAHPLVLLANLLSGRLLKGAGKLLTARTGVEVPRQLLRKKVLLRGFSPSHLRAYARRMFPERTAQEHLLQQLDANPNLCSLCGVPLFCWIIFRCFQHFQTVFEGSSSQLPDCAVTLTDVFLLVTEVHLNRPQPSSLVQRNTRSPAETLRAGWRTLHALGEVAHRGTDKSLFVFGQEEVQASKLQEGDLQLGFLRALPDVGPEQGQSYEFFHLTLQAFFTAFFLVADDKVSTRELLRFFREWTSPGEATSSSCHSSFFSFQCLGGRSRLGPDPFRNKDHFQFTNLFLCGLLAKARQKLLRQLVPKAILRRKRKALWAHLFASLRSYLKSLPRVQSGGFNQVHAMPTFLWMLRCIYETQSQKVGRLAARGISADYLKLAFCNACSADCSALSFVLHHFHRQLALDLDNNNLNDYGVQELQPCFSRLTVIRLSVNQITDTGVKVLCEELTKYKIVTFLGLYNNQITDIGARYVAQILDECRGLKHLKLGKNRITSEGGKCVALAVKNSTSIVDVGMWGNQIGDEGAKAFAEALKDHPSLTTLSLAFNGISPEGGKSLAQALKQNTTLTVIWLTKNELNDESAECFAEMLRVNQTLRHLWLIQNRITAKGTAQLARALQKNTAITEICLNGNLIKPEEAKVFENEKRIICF
The series is described as follows: Antagonist activity at mouse NOD1 expressed in HEK-Blue cells assessed as decrease in SEAP secretion incubated for 3 hrs followed by C12-iE-DAP stimulation for 20 hrs by spectrophotometry. The class given is cell-based. Particulars: HEK-Blue mNOD1, filed as antagonist, time 23.0 hrs.

Series [2] deals with T2, Nucleotide-binding oligomerization domain-containing protein 1 (Homo sapiens) (UniProt Q9Y239).
T2 sequence (whole entry): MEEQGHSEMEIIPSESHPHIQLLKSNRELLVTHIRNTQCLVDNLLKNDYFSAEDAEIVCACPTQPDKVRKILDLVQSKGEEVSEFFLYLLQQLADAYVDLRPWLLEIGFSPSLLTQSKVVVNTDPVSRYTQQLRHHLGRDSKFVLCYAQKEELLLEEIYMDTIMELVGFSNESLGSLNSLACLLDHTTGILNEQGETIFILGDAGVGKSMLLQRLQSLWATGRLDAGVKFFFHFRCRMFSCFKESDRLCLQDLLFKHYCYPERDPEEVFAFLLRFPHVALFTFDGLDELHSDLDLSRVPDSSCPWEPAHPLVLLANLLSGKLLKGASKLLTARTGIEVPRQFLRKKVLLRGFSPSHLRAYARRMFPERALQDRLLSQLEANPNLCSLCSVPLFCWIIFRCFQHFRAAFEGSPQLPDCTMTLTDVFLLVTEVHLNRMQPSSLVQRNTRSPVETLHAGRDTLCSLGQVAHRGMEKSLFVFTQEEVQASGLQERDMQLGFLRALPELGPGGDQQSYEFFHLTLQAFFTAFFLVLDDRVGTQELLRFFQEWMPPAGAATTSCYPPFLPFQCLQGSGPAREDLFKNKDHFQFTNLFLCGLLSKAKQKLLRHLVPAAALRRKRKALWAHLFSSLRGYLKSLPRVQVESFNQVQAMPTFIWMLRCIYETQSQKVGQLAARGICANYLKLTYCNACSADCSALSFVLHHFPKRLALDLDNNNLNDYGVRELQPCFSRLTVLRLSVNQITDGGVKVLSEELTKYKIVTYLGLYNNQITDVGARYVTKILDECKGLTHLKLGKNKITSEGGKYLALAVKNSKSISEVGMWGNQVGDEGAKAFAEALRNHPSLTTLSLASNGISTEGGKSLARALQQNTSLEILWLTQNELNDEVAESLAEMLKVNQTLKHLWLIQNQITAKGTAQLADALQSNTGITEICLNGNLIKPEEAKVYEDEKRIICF
The series is described as follows: Antagonist activity at NOD1 in human THP-1 cells assessed as decrease in phosphorylated p65 level at 0.1 to 1 uM incubated for 1 hr followed by C12-iE-DAP stimulation for 30 mins by Western blot analysis. Type of series: cell-based. The following applies: filed as antagonist, dose 0.1-1 µM, time 1.5 hrs. For orientation: Immunoblotting shows a protein as a band on a membrane.

Series [3] in a line: MRT (infinity) in C57BL/6 mouse at 20 mg/kg, po by LC-MS/MS analysis. Type of series: ADME, organism-based. The following applies: in vivo.
Series [4] concerns THP-1. The series is described as follows: Anti-inflammatory activity in human THP-1 cells assessed as decrease in CXCL8 mRNA level at 5 uM pretreated for 1 hr followed by infection with Helicobacter pylori for 2 hrs by RT-qPCR analysis. The class given is functional, cell-based. The following applies: time 3.0 hrs.
Series [5] addresses T1, Nucleotide-binding oligomerization domain-containing protein 1 (Mus musculus). The series is described as follows: Antagonist activity at NOD1 in mouse BMDM cells assessed as decrease in phosphorylated p38 level at 0.1 to 1 uM incubated for 1 hr followed by C12-iE-DAP stimulation for 30 mins by Western blot analysis. The following applies: filed as antagonist, dose 0.1-1 µM, time 1.5 hrs. The class given is cell-based.

Another series concerns AGS. The series is described as follows: Anti-inflammatory activity in human AGS cells assessed as decrease in CXCL8 mRNA level at 1 uM pretreated for 1 hr followed by C12-iE-DAP stimulation for 2 hrs by RT-qPCR analysis. The class given is functional, cell-based. Particulars: time 3.0 hrs.
The nature of series [6]: AUC (infinity) in C57BL/6 mouse at 20 mg/kg, po by LC-MS/MS analysis. Type of series: ADME, organism-based. Particulars: in vivo.
The target in series [7] is T2, Nucleotide-binding oligomerization domain-containing protein 1 (Homo sapiens). The series is described as follows: Thermal stabilization of NOD1 (unknown origin) transfected in HEK293 cells at 0.1 to 5 uM incubated for 1 hr heated at higher temperature by CETSA. The class given is cell-based. Particulars: dose 0.1-5 µM.
The test system of series [8] is THP-1. The series is described as follows: Anti-inflammatory activity in human THP-1 cells assessed as decrease in IL-6 mRNA level at 0.1 uM pretreated for 1 hr followed by C12-iE-DAP stimulation for 2 hrs by RT-qPCR analysis relative to control. Type of series: functional. More on the design: scale not given: the % may be the effect or the level left. Particulars: time 3 hrs.

Series [9] can be described thus: Cmax in C57BL/6 mouse at 2 mg/kg, iv by LC-MS/MS analysis. Type of series: ADME, organism-based. The following applies: in vivo.
The nature of series [10]: Cytotoxicity against HEK-Blue hNOD1 cells by SRB assay. Type of series: toxicity, cell-based. Particulars: human. In general terms: The SRB assay estimates cell density from bound dye.
For series [11], the target named is T2, Nucleotide-binding oligomerization domain-containing protein 1 (Homo sapiens). The series is described as follows: Antagonist activity at NOD1 in human THP-1 cells assessed as decrease in phosphorylated RIP2 level at 0.1 to 1 uM incubated for 1 hr followed by C12-iE-DAP stimulation for 30 mins by Western blot analysis. The class given is cell-based. Particulars: filed as antagonist, dose 0.1-1 µM, time 1.5 hrs.

Activity calls are given as the source filed them. The calls are words filed in the database; no cut-off is given here.

Turning to `CS(=O)(=O)c1ccc2nc(Cl)n(-c3ccc(Cl)c(NS(=O)(=O)c4c(F)cccc4F)c3)c(=O)c2c1`, the result (in the series on BMDM; with THP-1 [4]; in the series on AGS; in [7]) was Active. Also, the Activity entry in [1] is “Dose-dependent-effect”; in the series with THP-1 [8] it was around 100%; in series [10], “Non-toxic”. The inhibition result in series [2], in [5] and in series [11] was “Active” throughout. The compound further gave an MRT inf in [3] of 3.22 h. For the same compound, in [6], the AUC(0-inf) turned out to be 35.9 ng·h/mL. This compound had a Cmax in series [9] of 234 ng/mL.

These data come from ChEMBL document CHEMBL6074678, “Selectively Antagonizing the NOD1-Mediated Inflammatory Signaling Pathway Mitigates the Gastric Inflammation Induced by Helicobacter pylori Infection” (J Med Chem, 2024).
